Source: US20160168140A1, “HETEROCYCLIC COMPOUNDS AS ANTIBIOTIC POTENTIATORS” (priority 2014, published 2016)

tested on: Acinetobacter baumannii (Ab23); assay: MIC shift assay of antibiotics (broth microdilution); type: cell-based; conditions: compound concentration 1 μM; fold shift of colistin MIC; nc = no changeover or no shift
Method: Minimum inhibitory concentration (MIC) shift assays were performed to determine if the test compounds could alter the MIC of existing antibacterial drugs (e.g., ciprofloxacin and colistin) for E. coli, Acinetobacter baumannii, Klebsiella pneumoniae, Pseudomonas aeruginosa, and Enterobacter cloacae. The MIC shift assay is based on the standard broth microdilution MIC determination protocol of Wiegand et al, Nat Protoc. 3(2):163-75 (2008), with slight modifications that allow for the screening of up to seven test compounds in a single plate.
On the day before an assay, bacteria were grown overnight in cation-adjusted Mueller Hinton broth (CAMHB; Teknova, Hollister, Calif.) at 37° C. in an orbital shaker and sub-cultured at a 1:200 dilution the following morning. The cells were grown to OD600=0.5 to 0.8 and then diluted to OD600=0.01. From a serial dilution of each antibiotic at (50 μL of 2× concentrated stock solutions) several concentrations were added to the wells of a sterile, transparent round-bottom 96-well plate (Phenix Research Products, Candler, N.C.), and diluted cells (50 μL) were added to the plates for a starting OD600 of 0.005. […] A row of wells lacking test compound but containing the antibiotic was used to determine the MIC of that antibiotic alone. A column of wells lacking both antibiotic and test compound served as a growth control, and an additional column containing only CAMHB was included as a sterile blank control.
The plates were incubated for 18 to 20 h at 37° C. in an orbital shaker, and the cell density (OD600) was determined the following day in a microplate reader (PolarStar Optima, BMG Labtech). The MIC shift was determined by comparing the MIC of the antibiotic alone to the MIC of the antibiotic plus test compound.

| Structure (SMILES) | colistin MIC shift, Ab23 at (compd concentration) |
| --- | --- |
| FC(F)(F)c1cccc(-c2c[nH]c3cc(Cl)c(Cl)cc23)c1 [compound 431] | 4x (1 μM); |

same assay, conditions: compound concentration 2 μM; fold shift of colistin MIC; nc = no changeover or no shift

| Structure (SMILES) | colistin MIC shift, Ab23 at (compd concentration) |
| --- | --- |
| Cc1cccc2c(NCCCN3CCCCC3)nc(-c3cc(Br)cc(C(F)(F)F)c3)nc12 [compound 347] | 8-16x |
| Cc1cccc2c(NCCCN(C)C)nc(-c3cc(-c4cncs4)cc(C(F)(F)F)c3)nc12 [compound 346] | 8-16x |
| FC(F)(F)c1cccc(-c2c[nH]c3cc(Cl)c(Cl)cc23)c1 [compound 431] | ≧16x (2 μM) |

same assay, conditions: compound concentration 4 μM; fold shift of colistin MIC; nc = no changeover or no shift

| Structure (SMILES) | colistin MIC shift, Ab23 at (compd concentration) |
| --- | --- |
| Cc1cccc2c(NCCCN3CCNCC3)nc(-c3cc(Br)cc(C(F)(F)F)c3)nc12 [compound 462] | 64x |
| Fc1ccc2c(/C=C/c3cccc(C(F)(F)F)c3)c[nH]c2c1 [compound 396] | 8x |
| CN(C)CCCNc1nc(-c2cc(-c3ccccc3)cc(C(F)(F)F)c2)nc2c(C(F)(F)F)cccc12 [compound 514] | 16x |
| Fc1ccc2c(/C=C/c3cc(C(F)(F)F)cc(C(F)(F)F)c3)c[nH]c2c1 [compound 386] | 16x |
| CN(C)CCCn1cc(-c2ccc(Cl)c(Cl)c2)c2cc(Cl)ccc21 [compound 359] | 16x |
| CN(C)CCCn1cc(/C=C/c2ccc(Cl)c(Cl)c2)c2cc(Br)ccc21 [compound 356] | 16-64x |
| CN(C)CCCNc1nc(-c2cn(Cc3ccccc3)c3c(Cl)cccc23)nc2c(Cl)cccc12 [compound 567] | 16x |
| Fc1ccc2c(/C=C/c3ccc(OC(F)(F)F)cc3)c[nH]c2c1 [compound 394] | 8x |
| Cc1cccc2c(NCCCN(C)C)nc(-c3cccc(-c4cc(Cl)cc(Cl)c4)c3)nc12 [compound 470] | 2x |
| Cc1cccc2c(NCCCN)nc(-c3cccc(-c4cc(C(F)(F)F)ccc4F)c3)nc12 [491a] | 128x |
| CCN(CC)CCCC(C)Nc1nc(/C=C/c2ccc(Cl)c(Cl)c2)nc2c([N+](=O)[O-])cccc12 (racemic) [compound 314] | 8x |
| CCN(CC)CCCC(C)Nc1nc(-c2cccc(-c3cccc(C(F)(F)F)c3)c2)nc2c(C)cccc12 (stereo not drawn) [compound 465] | 8-16x |
| CN(C)CCCNc1nc(-c2cccc(-c3cc(F)cc(C(F)(F)F)c3)c2)nc2c(Cl)cccc12 [compound 491] | 32x |
| FC(F)(F)c1ccc2c(-c3ccc(Cl)c(Cl)c3)nn(Cc3ccc(Cl)cc3)c2c1 [compound 391, 1-(4-chlorobenzyl)-3-(3,4-dichlorophenyl)-6-(trifluoromethyl)-1H-indazole] | 16x |
| FC(F)(F)c1ccc2c(-c3cccc(Cl)c3Cl)n[nH]c2c1 [compound 543] | 1x |
| CCN(CC)CCCC(C)Nc1nc(-c2cccc(-c3ccc(C(F)(F)F)cc3F)c2)nc2c(C)cccc12 (stereo not drawn) [compound 471] | 8x |
| O=C(c1ccc(Cl)c(Cl)c1)n1nc(-c2ccc(Cl)c(Cl)c2)c2ccc(C(F)(F)F)cc21 [compound 392, (3,4-dichlorophenyl)(3-(3,4-dichlorophenyl)-6-(trifluoromethyl)-1H-indazol-1-yl)methanone] | 16x |

| Structure (SMILES) | colistin MIC shift, Ab23 at (compd concentration) |
| --- | --- |
| Fc1cccc2[nH]cc(/C=C/c3ccc(Cl)c(Cl)c3)c12 [compound 372] | 8-32x |
| CN(C)CCCNc1nc(/C=C/c2ccc(Cl)c(Cl)c2)nc2c([N+](=O)[O-])cccc12 [compound 302] | 16x |
| CCN(CC)CCCC(C)Nc1nc(-c2cccc(-c3cc(C(F)(F)F)ccc3F)c2)nc2cc(C(F)(F)F)ccc12 (stereo not drawn) [compound 481] | 8x |
| FC(F)(F)c1cccc(-c2ccc3[nH]ccc3c2)c1 [compound 398, 5-(3-(trifluoromethyl)phenyl)-1H-indole] | 4x |
| Cc1cc(-c2nc(NCCCN(C)C)c3cccc(C)c3n2)cc(C(F)(F)F)c1 [compound 507] | 8x |
| Cc1cccc2c(NCCCN(C)C)nc(-c3cn(Cc4ccccc4)c4cc(Cl)ccc34)nc12 [compound 586] | 16x |
| O=[N+]([O-])c1ccc2[nH]cc(/C=C/c3ccc(Cl)c(Cl)c3)c2c1 [compound 379] | 8x |
| CCN(CC)CCCC(C)Nc1nc(-c2cccc(-c3cc(Cl)cc(Cl)c3)c2)nc2c(C)cccc12 (stereo not drawn) [compound 469] | 16x |
| Fc1ccc2c(/C=C/c3ccc(Cl)c(Cl)c3)c[nH]c2c1 [compound 366] | 16-32x |
| CCC(N)C(=O)n1cc(-c2ccc(Cl)c(Cl)c2)c2cc(Cl)ccc21 (stereo not drawn) [362f] | 64x |
| Cc1ccc2[nH]cc(/C=C/c3ccc(Cl)c(Cl)c3)c2c1 [compound 370] | 32x |
| Fc1ccc2c(/C=C/c3cc(Cl)ccc3Cl)c[nH]c2c1 [compound 384] | 8-16x |
| Fc1ccc2c(/C=C/c3ccc(C(F)(F)F)cc3)c[nH]c2c1 [compound 387] | 16x |
| CCN(CC)CCCC(C)Nc1nc(/C=C/c2ccc(Cl)c(Cl)c2)nc2cc(C(F)(F)F)ccc12 (racemic) [compound 315] | 4-8x |
| CN(C)CCCNc1nc(-c2cn(Cc3ccccc3)c3c(Cl)cccc23)nc2cc(Cl)ccc12 [compound 585] | 8x |
| CCN(CC)CCCC(C)Nc1nc(/C=C/c2ccc(Cl)c(Cl)c2)nc2ccc(Br)cc12 (racemic) [compound 318] | 2x |
| Cc1c(Br)ccc2c(NCCCN(C)C)nc(-c3cc(Br)cc(C(F)(F)F)c3)nc12 [compound 512] | 64x |

same assay, conditions: compound concentration 8 μM; fold shift of colistin MIC; nc = no changeover or no shift

| Structure (SMILES) | colistin MIC shift, Ab23 at (compd concentration) [x] |
| --- | --- |
| CCN(CC)CCCC(C)Nc1nc(-c2cc(Br)c3ccccc3c2)nc2c(C)cccc12 (stereo not drawn) [compound 445] | 16 |
| O=C(Nc1cccc(C(F)(F)F)c1)c1c[nH]c2ccc(Br)cc12 [compound 428] | 4 |

same assay, conditions: compound concentration 10 μM; fold shift of colistin MIC; nc = no changeover or no shift

| Structure (SMILES) | colistin MIC shift, Ab23 at (compd concentration) [x] |
| --- | --- |
| FC(F)(F)c1ccc2c(-c3cccc(-c4ccc(Cl)c(Cl)c4)c3)n[nH]c2c1 [compound 527] | 8 |
| Cc1cccc2c(NCCCN(C)C)nc(-c3cn(Cc4ccccc4)c4ccc(Cl)cc34)nc12 [compound 587] | 16 |
| CCN(CC)CCCC(C)Nc1nc(-c2cc(N3CCOCC3)cc(C(F)(F)F)c2)nc2c(C)cccc12 (stereo not drawn) [compound 500] | 4 |
| Cc1cccc2c(NCCCN(C)C)nc(-c3cc(N4CCOCC4)cc(C(F)(F)F)c3)nc12 [compound 501] | 8 |
| FC(F)(F)c1cccc(-c2n[nH]c3cc(C(F)(F)F)ccc23)c1 [compound 536] | 16 |
| O=C(O)CCn1cc(/C=C/c2ccc(Cl)c(Cl)c2)c2ccc(F)cc21 [compound 417] | 8 |
| Nc1cc(-c2n[nH]c3cc(C(F)(F)F)ccc23)cc(C(F)(F)F)c1 [compound 554] | 8 |
| Fc1cc(-c2n[nH]c3ccc(Cl)cc23)ccc1C(F)(F)F [compound 539] | 4 |
